The NIST ThermoML archive (doi:10.1016/j.jct.2005.03.002)
Numbers after ± are expanded uncertainties.

Test: xn = mol fraction of the nth substance listed
Conditions: 101.33 kPa, Liquid

CCOS(=O)(=O)[O-].CCn1cc[n+](C)c1 [1-ethyl-3-methylimidazolium ethyl sulfate] + O
mass density [kg/m3]
Conditions	278.2 K	288.2 K	298.2 K	308.2 K	318.2 K	328.2 K	338.2 K
x2 = 0	1243 ± 6.1	1236.2 ± 6	1229.6 ± 5.9	1223 ± 5.8	1216.2 ± 5.7	1209.9 ± 5.7	1203.7 ± 5.6
x2 = 0.0503	1242.6 ± 6.1	1235.5 ± 6	1229 ± 5.9	1222.6 ± 5.8	1216.2 ± 5.7	1209.8 ± 5.7	1203.6 ± 5.6
x2 = 0.0983	1241.6 ± 6.1	1234.7 ± 6	1227.9 ± 5.9	1221.6 ± 5.8	1215.1 ± 5.7	1208.6 ± 5.6	1202.5 ± 5.5
x2 = 0.1495	1240.2 ± 6.1	1233.5 ± 6	1226.9 ± 5.9	1220.5 ± 5.8	1213.9 ± 5.7	1207.5 ± 5.6	1201.2 ± 5.5
x2 = 0.1996	1239.2 ± 6.1	1232.7 ± 6	1226.2 ± 5.9	1219.5 ± 5.8	1213 ± 5.7	1206.6 ± 5.6	1200.1 ± 5.5
x2 = 0.2505	1238.3 ± 6.1	1231.1 ± 6	1224.7 ± 5.9	1218.3 ± 5.8	1211.7 ± 5.7	1205.3 ± 5.6	1198.7 ± 5.5
x2 = 0.2999	1236.7 ± 6.1	1229.8 ± 6	1223.1 ± 5.9	1216.6 ± 5.8	1210.1 ± 5.7	1203.8 ± 5.6	1198 ± 5.5
x2 = 0.3504	1235.6 ± 6	1228.5 ± 5.9	1221.8 ± 5.8	1215.3 ± 5.7	1208.7 ± 5.6	1202.4 ± 5.5	1196.1 ± 5.5
x2 = 0.3987	1233.4 ± 6	1226.6 ± 5.9	1220.1 ± 5.8	1213.4 ± 5.7	1206.8 ± 5.6	1200.3 ± 5.5	1194.3 ± 5.4
x2 = 0.4505	1231.1 ± 6	1224.4 ± 5.9	1218 ± 5.8	1211.2 ± 5.7	1204.6 ± 5.6	1198.6 ± 5.5	1192.2 ± 5.4
x2 = 0.4994	1228.7 ± 5.9	1222 ± 5.8	1215.4 ± 5.7	1208.8 ± 5.6	1202.2 ± 5.5	1196.2 ± 5.5	1189.9 ± 5.4
x2 = 0.5495	1225.8 ± 5.9	1219.1 ± 5.8	1212.3 ± 5.7	1205.8 ± 5.6	1199.4 ± 5.5	1193 ± 5.4	1186.8 ± 5.3
x2 = 0.6	1222.1 ± 5.8	1215.3 ± 5.7	1208.7 ± 5.6	1202 ± 5.5	1195.6 ± 5.4	1189.2 ± 5.3	1183 ± 5.3
x2 = 0.6504	1217.2 ± 5.8	1210.7 ± 5.7	1203.8 ± 5.6	1197.4 ± 5.5	1190.8 ± 5.4	1184.4 ± 5.3	1178 ± 5.2
x2 = 0.6999	1211.5 ± 5.7	1204.7 ± 5.6	1198.3 ± 5.5	1191.5 ± 5.4	1184.7 ± 5.3	1178.2 ± 5.2	1171.8 ± 5.1
x2 = 0.7502	1203.2 ± 5.6	1196.8 ± 5.5	1190 ± 5.4	1183.3 ± 5.3	1176.6 ± 5.2	1170 ± 5.1	1163.8 ± 5
x2 = 0.8	1192.4 ± 5.4	1185.7 ± 5.3	1178.9 ± 5.2	1172.4 ± 5.1	1165.6 ± 5	1159.1 ± 4.9	1153.1 ± 4.8
x2 = 0.8499	1176.4 ± 5.2	1169.9 ± 5.1	1163.4 ± 5	1156.8 ± 4.9	1150 ± 4.8	1143.9 ± 4.7	1137.8 ± 4.6
x2 = 0.9	1149.2 ± 4.8	1142.9 ± 4.7	1136.6 ± 4.6	1130.3 ± 4.5	1124.4 ± 4.4	1117.8 ± 4.3	1112.4 ± 4.3
x2 = 0.94	1107.2 ± 4.2	1101.8 ± 4.1	1096.4 ± 4	1090.8 ± 4	–	–	–
